Measurements as given in PubChem BioAssay AID2060890 (Molecular Pharmacology Branch, DTP, NCI, 2025).
pIC50: −log10 of the molar value.

Tested on: LG0703-F948-PDC complex spheroid viability
Assay: Anticancer human tumor LG0703-F948-PDC patient-derived lung adenocarcinoma cell line growth inhibition [RAS]
Conditions: for pIC50: curve of first compound; for viability, T/C: stronger effect = lower value
Summary of the method: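 Tumour cells grown as complex spheroids with HUVEC endothelial cells and mesenchymal stem cells, treated with RAS pathway inhibitor combinations. Each agent spans half-log steps from near clinical Cmax, or 10 microM where Cmax is unknown.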

[1] = second compound 0.000949 µM, first compound 0.0316 µM
[2] = second compound 0.000949 µM, first compound 0.1 µM
[3] = second compound 0.000949 µM, first compound 0.316 µM
[4] = second compound 0.000949 µM, first compound 1 µM
[5] = second compound 0.000949 µM, first compound 3.16 µM
[6] = second compound 0.000949 µM, first compound 10 µM
[7] = second compound 0.003 µM, first compound 0.0316 µM
[8] = second compound 0.003 µM, first compound 0.1 µM
[9] = second compound 0.003 µM, first compound 0.316 µM
[10] = second compound 0.003 µM, first compound 1 µM
[11] = second compound 0.003 µM, first compound 3.16 µM
[12] = second compound 0.003 µM, first compound 10 µM
[13] = second compound 0.00949 µM, first compound 0.0316 µM
[14] = second compound 0.00949 µM, first compound 0.1 µM
[15] = second compound 0.00949 µM, first compound 0.316 µM
[16] = second compound 0.00949 µM, first compound 1 µM
[17] = second compound 0.00949 µM, first compound 3.16 µM
[18] = second compound 0.00949 µM, first compound 10 µM
[19] = second compound 0.03 µM, first compound 0.0316 µM
[20] = second compound 0.03 µM, first compound 0.1 µM
[21] = second compound 0.03 µM, first compound 0.316 µM
[22] = second compound 0.03 µM, first compound 1 µM
[23] = second compound 0.03 µM, first compound 3.16 µM
[24] = second compound 0.03 µM, first compound 10 µM
[25] = second compound 0.0949 µM, first compound 0.0316 µM
[26] = second compound 0.0949 µM, first compound 0.1 µM
[27] = second compound 0.0949 µM, first compound 0.316 µM
[28] = second compound 0.0949 µM, first compound 1 µM
[29] = second compound 0.0949 µM, first compound 3.16 µM
[30] = second compound 0.0949 µM, first compound 10 µM
[31] = second compound 0.3 µM, first compound 0.0316 µM
[32] = second compound 0.3 µM, first compound 0.1 µM
[33] = second compound 0.3 µM, first compound 0.316 µM
[34] = second compound 0.3 µM, first compound 1 µM
[35] = second compound 0.3 µM, first compound 3.16 µM
[36] = second compound 0.3 µM, first compound 10 µM
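Further: spheroids exposed to agents for 7 days.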
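Wherever viability, T/C is given: 100% = DMSO vehicle wells.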

C[C@@H](NC(=O)c1ncnc(N)c1Cl)c1ncc(C(=O)Nc2cc(C(F)(F)F)c(Cl)cn2)s1 + C=CC(=O)N1CCN(c2nc(OCC3CCCN3C)nc3c(F)c(-c4nc(N)cc(C)c4C(F)(F)F)c(Cl)cc23)C(C)C1
pIC50 (second compound 0.00316 µM): < 5.00
pIC50 (second compound 0.01 µM): < 5.00
pIC50 (second compound 0.0316 µM): < 5.00
pIC50 (second compound 0.1 µM): < 5.00
pIC50 (second compound 0.316 µM): < 5.00
pIC50 (second compound 1 µM): < 5.00
viability, T/C (second compound 0.00316 µM, first compound 0.0316 µM): 99.4%
viability, T/C (second compound 0.00316 µM, first compound 0.1 µM): 100%
viability, T/C (second compound 0.00316 µM, first compound 0.316 µM): 107%
viability, T/C (second compound 0.00316 µM, first compound 1 µM): 110%
viability, T/C (second compound 0.00316 µM, first compound 3.16 µM): 104%
viability, T/C (second compound 0.00316 µM, first compound 10 µM): 93%
viability, T/C (second compound 0.01 µM, first compound 0.0316 µM): 113%
viability, T/C (second compound 0.01 µM, first compound 0.1 µM): 103%
viability, T/C (second compound 0.01 µM, first compound 0.316 µM): 107%
viability, T/C (second compound 0.01 µM, first compound 1 µM): 111%
viability, T/C (second compound 0.01 µM, first compound 3.16 µM): 109%
viability, T/C (second compound 0.01 µM, first compound 10 µM): 97.2%
viability, T/C (second compound 0.0316 µM, first compound 0.0316 µM): 103%
viability, T/C (second compound 0.0316 µM, first compound 0.1 µM): 109%
viability, T/C (second compound 0.0316 µM, first compound 0.316 µM): 95.8%
viability, T/C (second compound 0.0316 µM, first compound 1 µM): 102%
viability, T/C (second compound 0.0316 µM, first compound 3.16 µM): 121%
viability, T/C (second compound 0.0316 µM, first compound 10 µM): 95.2%
viability, T/C (second compound 0.1 µM, first compound 0.0316 µM): 106%
viability, T/C (second compound 0.1 µM, first compound 0.1 µM): 109%
viability, T/C (second compound 0.1 µM, first compound 0.316 µM): 113%
viability, T/C (second compound 0.1 µM, first compound 1 µM): 109%
viability, T/C (second compound 0.1 µM, first compound 3.16 µM): 118%
viability, T/C (second compound 0.1 µM, first compound 10 µM): 95.2%
viability, T/C (second compound 0.316 µM, first compound 0.0316 µM): 118%
viability, T/C (second compound 0.316 µM, first compound 0.1 µM): 105%
viability, T/C (second compound 0.316 µM, first compound 0.316 µM): 108%
viability, T/C (second compound 0.316 µM, first compound 1 µM): 114%
viability, T/C (second compound 0.316 µM, first compound 3.16 µM): 117%
viability, T/C (second compound 0.316 µM, first compound 10 µM): 100%
viability, T/C (second compound 1 µM, first compound 0.0316 µM): 115%
viability, T/C (second compound 1 µM, first compound 0.1 µM): 116%
viability, T/C (second compound 1 µM, first compound 0.316 µM): 118%
viability, T/C (second compound 1 µM, first compound 1 µM): 132%
viability, T/C (second compound 1 µM, first compound 3.16 µM): 129%
viability, T/C (second compound 1 µM, first compound 10 µM): 98.3%

CC(Nc1ccc2c(c1)OCCn1cc(N3C(=O)OCC3C(F)F)nc1-2)C(N)=O (configuration not stated)
viability, T/C (compound 0.0316 µM): 96.2% [middle of 4 runs]
viability, T/C (compound 0.1 µM): 88.9% [middle of 4 runs]
viability, T/C (compound 1 µM): 56.3% [middle of 4 runs]
viability, T/C (compound 3.16 µM): 45% [middle of 4 runs]
viability, T/C (compound 10 µM): 27.8% [middle of 4 runs]

CCn1c(-c2cccnc2C(C)OC)c2c3cc(ccc31)N1CCOC(CC(NC(=O)C(C(C)C)N(C)C(=O)C3(F)CCN(C(=O)C#CC(C)(C)N(C)C)CC3)C(=O)N3CCCC(N3)C(=O)OCC(C)(C)C2)C1 (configuration not stated)
viability, T/C (compound 0.000949 µM): 99.8% [middle of 8 runs]
viability, T/C (compound 0.00949 µM): 101% [middle of 8 runs]
viability, T/C (compound 0.03 µM): 101% [middle of 8 runs]
viability, T/C (compound 0.0949 µM): 82.6% [middle of 8 runs]
viability, T/C (compound 0.3 µM): 50.1% [middle of 8 runs]

CC(Nc1ccc2c(c1)OCCn1cc(N3C(=O)OCC3C(F)F)nc1-2)C(N)=O (configuration not stated) + CCn1c(-c2cc(N3CCN(C)CC3)cnc2C(C)OC)c2c3cc(ccc31)-c1csc(n1)CC(NC(=O)C1CC1C)C(=O)N1CCCC(N1)C(=O)OCC(C)(C)C2
pIC50 (second compound 0.000949 µM): 6.87
pIC50 (second compound 0.003 µM): > 7.50
pIC50 (second compound 0.00949 µM): > 7.50
pIC50 (second compound 0.03 µM): > 7.50
pIC50 (second compound 0.0949 µM): > 7.50
pIC50 (second compound 0.3 µM): > 7.50
viability, T/C [1]: 66.8%
viability, T/C [2]: 55%
viability, T/C [3]: 37.9%
viability, T/C [4]: 22.5%
viability, T/C [5]: 16.8%
viability, T/C [6]: 8.97%
viability, T/C [7]: 38.7%
viability, T/C [8]: 31.1%
viability, T/C [9]: 20.2%
viability, T/C [10]: 12.6%
viability, T/C [11]: 8.64%
viability, T/C [12]: 3.86%
viability, T/C [13]: 20.7%
viability, T/C [14]: 16.5%
viability, T/C [15]: 7.46%
viability, T/C [16]: 5.56%
viability, T/C [17]: 4.28%
viability, T/C [18]: 1.67%
viability, T/C [19]: 10.8%
viability, T/C [20]: 8.93%
viability, T/C [21]: 4%
viability, T/C [22]: 3.07%
viability, T/C [23]: 1.45%
viability, T/C [24]: 1.14%
viability, T/C [25]: 8.21%
viability, T/C [26]: 5.47%
viability, T/C [27]: 3.07%
viability, T/C [28]: 2.1%
viability, T/C [29]: 1.39%
viability, T/C [30]: 0.7%
viability, T/C [31]: 6.47%
viability, T/C [32]: 4.12%
viability, T/C [33]: 2.78%
viability, T/C [34]: 2.27%
viability, T/C [35]: 1.25%
viability, T/C [36]: 0.71%

CC(C)NCC(C(=O)N1CCN(c2ncnc3c2C(C)CC3O)CC1)c1ccc(Cl)cc1 (configuration not stated)
viability, T/C (compound 0.1 µM): 90.6% [middle of 4 runs]
viability, T/C (compound 0.316 µM): 70.8% [middle of 4 runs]
viability, T/C (compound 1 µM): 48% [middle of 4 runs]
viability, T/C (compound 3.16 µM): 40.3% [middle of 4 runs]
viability, T/C (compound 10 µM): 32.6% [middle of 4 runs]
IC50 (curve of compound): 946 nM [middle of 4 runs]

CC(=O)OC12COC1CC(O)C1(C)C(=O)C(O)C3=C(C)C(OC(=O)C(O)C(NC(=O)OC(C)(C)C)c4ccccc4)CC(O)(C(OC(=O)c4ccccc4)C21)C3(C)C (configuration not stated) + CCn1c(-c2cc(N3CCN(C)CC3)cnc2C(C)OC)c2c3cc(ccc31)-c1csc(n1)CC(NC(=O)C1CC1C)C(=O)N1CCCC(N1)C(=O)OCC(C)(C)C2
pIC50 (second compound 0.000949 µM): > 7.50
pIC50 (second compound 0.003 µM): > 7.50
pIC50 (second compound 0.00949 µM): > 7.50
pIC50 (second compound 0.03 µM): > 7.50
pIC50 (second compound 0.0949 µM): > 7.50
pIC50 (second compound 0.3 µM): > 7.50
viability, T/C [1]: 37.4%
viability, T/C [2]: 33.5%
viability, T/C [3]: 37.2%
viability, T/C [4]: 30.1%
viability, T/C [5]: 25.9%
viability, T/C [6]: 19.9%
viability, T/C [7]: 23.8%
viability, T/C [8]: 17%
viability, T/C [9]: 23%
viability, T/C [10]: 15.7%
viability, T/C [11]: 12.3%
viability, T/C [12]: 14.2%
viability, T/C [13]: 11.2%
viability, T/C [14]: 13.6%
viability, T/C [15]: 12.8%
viability, T/C [16]: 12%
viability, T/C [17]: 7.75%
viability, T/C [18]: 7.15%
viability, T/C [19]: 6.77%
viability, T/C [20]: 7.29%
viability, T/C [21]: 9.54%
viability, T/C [22]: 7.24%
viability, T/C [23]: 6.73%
viability, T/C [24]: 4.63%
viability, T/C [25]: 7.39%
viability, T/C [26]: 5.34%
viability, T/C [27]: 4.2%
viability, T/C [28]: 4.62%
viability, T/C [29]: 4%
viability, T/C [30]: 2.6%
viability, T/C [31]: 9.13%
viability, T/C [32]: 5.01%
viability, T/C [33]: 3.87%
viability, T/C [34]: 4.26%
viability, T/C [35]: 3.58%
viability, T/C [36]: 2.37%
